Columns and labels:
Format in all cases: in vivo
[1] = tested on: ragweed (common ragweed, Ambrosia elatior); test: Test A postemergence; conditions: Ambrosia artemisiifolia, post-emergence, 240 h, postemergence; for pest or weed control at 125 g/ha: 125 g ai/ha, visual injury vs untreated controls after approx. 10 d, 0 = no effect, 100 = complete control, read-out: Ragweed plant response rating (0 to 100 scale); for pest or weed control at 500 g/ha: 500 g ai/ha, 0 to 100 scale, 0 is no effect, 100 is complete control, read-out: Ragweed plant response rating
Outline: (§1)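 Visual injury scores from 0, no effect, to 100, complete control, were assigned versus untreated controls roughly 10 d after treatment in the greenhouse. Test chemicals, formulated with surfactant in a non-phytotoxic solvent, were applied to planted seeds as a preemergence soil spray or postemergence to one- to two-leaf plants 2 to 10 cm tall, in loam–sand soil.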

[2] = tested on: Kochia (Kochia scoparia); test: Test A postemergence; conditions: Bassia scoparia, post-emergence, 240 h, postemergence; for pest or weed control at 125 g/ha: 125 g ai/ha, visual injury vs untreated controls after approx. 10 d, 0 = no effect, 100 = complete control, read-out: Kochia plant response rating (0 to 100 scale); for pest or weed control at 500 g/ha: 500 g ai/ha, 0 to 100 scale, 0 is no effect, 100 is complete control, read-out: Kochia plant response rating
Outline: as §1

[3] = tested on: blackgrass (Alopecurus myosuroides); test: Test A postemergence; conditions: Alopecurus myosuroides, post-emergence, 240 h, postemergence; for pest or weed control at 125 g/ha: 125 g ai/ha, visual injury vs untreated controls after approx. 10 d, 0 = no effect, 100 = complete control, read-out: Blackgrass plant response rating (0 to 100 scale); for pest or weed control at 500 g/ha: 500 g ai/ha, 0 to 100 scale, 0 is no effect, 100 is complete control, read-out: Blackgrass plant response rating
Outline: as §1

[4] = tested on: barnyardgrass (Echinochloa crus-galli); test: Test A postemergence; conditions: Echinochloa crus-galli, post-emergence, 240 h, postemergence; for pest or weed control at 125 g/ha: 125 g ai/ha, visual injury vs untreated controls after approx. 10 d, 0 = no effect, 100 = complete control, read-out: Barnyardgrass plant response rating (0 to 100 scale); for pest or weed control at 500 g/ha: 500 g ai/ha, 0 to 100 scale, 0 is no effect, 100 is complete control, read-out: Barnyardgrass plant response rating
Outline: as §1

[5] = tested on: giant foxtail (Setaria faberii); test: Test A postemergence; conditions: Setaria faberi, post-emergence, 240 h, postemergence; for pest or weed control at 125 g/ha: 125 g ai/ha, visual injury vs untreated controls after approx. 10 d, 0 = no effect, 100 = complete control, read-out: Foxtail, Giant plant response rating (0 to 100 scale); for pest or weed control at 500 g/ha: 500 g ai/ha, 0 to 100 scale, 0 is no effect, 100 is complete control, read-out: Foxtail, Giant plant response rating
Outline: as §1

[6] = tested on: sedge, umbrella (small-flower umbrella sedge, Cyperus difformis); test: Test B flooded paddy test; conditions: Cyperus difformis, 250 g ai/ha, Flood; 0 to 100 scale where 0 is no effect and 100 is complete control; read-out: Sedge, Umbrella plant response rating
Outline: (§2)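 Percent control, visually estimated after 13–15 d in the greenhouse on a 0–100 basis, compares treated pots with untreated ones; compound was put into paddy water 3 cm above the soil when plants had two leaves.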

[7] = tested on: rice (Oryra sativa); test: Test B flooded paddy test; conditions: Oryza sativa, 250 g ai/ha, Flood; 0 to 100 scale where 0 is no effect and 100 is complete control; read-out: Rice plant response rating
Outline: as §2

[8] = tested on: ducksalad (Heteranthera limosa); test: Test B flooded paddy test; conditions: Heteranthera limosa, 250 g ai/ha, Flood; 0 to 100 scale where 0 is no effect and 100 is complete control; read-out: Ducksalad plant response rating
Outline: as §2

[9] = tested on: barnyardgrass (Echinochloa crus-galli); test: Test B flooded paddy test; conditions: Echinochloa crus-galli, 250 g ai/ha, Flood; 0 to 100 scale where 0 is no effect and 100 is complete control; read-out: Barnyardgrass plant response rating
Outline: as §2

[10] = tested on: ragweed (common ragweed, Ambrosia elatior); test: Test A preemergence; conditions: Ambrosia artemisiifolia, pre-emergence, 240 h, preemergence, 0 to 100 scale where 0 is no effect and 100 is complete control, read-out: Ragweed plant response rating; for pest or weed control at 125 g/ha: 125 g ai/ha, visual injury rating, approximately 10 d; for pest or weed control at 500 g/ha: 500 g ai/ha
Outline: as §1

[11] = tested on: ryegrass, Italian (Italian ryegrass, Lolium multiflorum); test: Test A preemergence; conditions: Lolium multiflorum, pre-emergence, 240 h, preemergence, 0 to 100 scale where 0 is no effect and 100 is complete control, read-out: Ryegrass, Italian plant response rating; for pest or weed control at 125 g/ha: 125 g ai/ha, visual injury rating, approximately 10 d; for pest or weed control at 500 g/ha: 500 g ai/ha
Outline: as §1

[12] = tested on: Kochia (Kochia scoparia); test: Test A preemergence; conditions: Bassia scoparia, pre-emergence, 240 h, preemergence, 0 to 100 scale where 0 is no effect and 100 is complete control, read-out: Kochia plant response rating; for pest or weed control at 125 g/ha: 125 g ai/ha, visual injury rating, approximately 10 d; for pest or weed control at 500 g/ha: 500 g ai/ha
Outline: as §1

[13] = tested on: pigweed (Amaranthus retroflexus); test: Test A preemergence; conditions: Amaranthus retroflexus, pre-emergence, 240 h, preemergence, 0 to 100 scale where 0 is no effect and 100 is complete control, read-out: Pigweed plant response rating; for pest or weed control at 125 g/ha: 125 g ai/ha, visual injury rating, approximately 10 d; for pest or weed control at 500 g/ha: 500 g ai/ha
[14] = tested on: barnyardgrass (Echinochloa crus-galli); test: Test A preemergence; conditions: Echinochloa crus-galli, pre-emergence, 240 h, preemergence, 0 to 100 scale where 0 is no effect and 100 is complete control, read-out: Barnyardgrass plant response rating; for pest or weed control at 125 g/ha: 125 g ai/ha, visual injury rating, approximately 10 d; for pest or weed control at 500 g/ha: 500 g ai/ha
Outline: as §1

[15] = tested on: giant foxtail (Setaria faberii); test: Test A preemergence; conditions: Setaria faberi, pre-emergence, 240 h, preemergence, 0 to 100 scale where 0 is no effect and 100 is complete control, read-out: Foxtail, Giant plant response rating; for pest or weed control at 125 g/ha: 125 g ai/ha, visual injury rating, approximately 10 d; for pest or weed control at 500 g/ha: 500 g ai/ha
Outline: as §1

SMILES	pest or weed control at 125 g/ha [1] [%]	pest or weed control at 500 g/ha [1] [%]	pest or weed control at 125 g/ha [2] [%]	pest or weed control at 500 g/ha [2] [%]	pest or weed control at 125 g/ha [3] [%]	pest or weed control at 500 g/ha [3] [%]	pest or weed control at 125 g/ha [4] [%]	pest or weed control at 500 g/ha [4] [%]	pest or weed control at 125 g/ha [5] [%]	pest or weed control at 500 g/ha [5] [%]	pest or weed control at 250 g/ha [6] [%]	pest or weed control at 250 g/ha [7] [%]	pest or weed control at 250 g/ha [8] [%]	pest or weed control at 250 g/ha [9] [%]	pest or weed control at 125 g/ha [10] [%]	pest or weed control at 500 g/ha [10] [%]	pest or weed control at 125 g/ha [11] [%]	pest or weed control at 500 g/ha [11] [%]	pest or weed control at 125 g/ha [12] [%]	pest or weed control at 500 g/ha [12] [%]	further results
CN1CC[C@H](c2ccc(C(F)(F)F)cc2)[C@@H](C(=O)Nc2ccc(F)c(F)c2F)C1=O [Compound 1226]	0	50	60	60	20	30	100	100	80	80	0	20	100	60	0	30	80	80	60	70	pest or weed control at 125 g/ha [13]: 80%; pest or weed control at 500 g/ha [13]: 90%; pest or weed control at 125 g/ha [14]: 90%; pest or weed control at 500 g/ha [14]: 100%; pest or weed control at 125 g/ha [15]: 100%; pest or weed control at 500 g/ha [15]: 100%
CN1CC[C@H](c2ccc(C(F)(F)F)cc2)[C@@H](C(=O)Nc2cccc(Cl)c2F)C1=O [Compound 1228]	0	0	60	60	0	40	90	90	80	80	0	30	100	50	0	0	30	60	0	0	pest or weed control at 125 g/ha [13]: 20%; pest or weed control at 500 g/ha [13]: 60%; pest or weed control at 125 g/ha [14]: 90%; pest or weed control at 500 g/ha [14]: 90%; pest or weed control at 125 g/ha [15]: 90%; pest or weed control at 500 g/ha [15]: 90%
CN1C[C@H](c2ccc(C#N)cc2)[C@@H](C(=O)Nc2ccc(F)c(F)c2F)C1=O [Compound 1229]	0	0	70	80	0	40	100	100	90	90	0	0	90	50	60	70	0	40	90	90	pest or weed control at 125 g/ha [13]: 60%; pest or weed control at 500 g/ha [13]: 90%; pest or weed control at 125 g/ha [14]: 90%; pest or weed control at 500 g/ha [14]: 100%; pest or weed control at 125 g/ha [15]: 100%; pest or weed control at 500 g/ha [15]: 100%
CSc1ccccc1NC(=O)[C@H]1C(=O)N(C)C[C@@H]1c1ccc(C#N)cc1 [Compound 1230]	0	0	30	70	0	0	30	70	60	80	0	0	70	25	0	0	0	0	70	90	pest or weed control at 125 g/ha [13]: 20%; pest or weed control at 500 g/ha [13]: 30%; pest or weed control at 125 g/ha [14]: 0%; pest or weed control at 500 g/ha [14]: 50%; pest or weed control at 125 g/ha [15]: 40%; pest or weed control at 500 g/ha [15]: 90%
O=C1NC[C@H](c2ccc(C(F)(F)F)cc2)C1C(=O)Nc1c(F)cccc1CO (stereo partly shown) [Compound 1243]	0	0	0	0	0	0	0	0	0	0	0	0	0	0	0	0	0	0	0	0	pest or weed control at 125 g/ha [13]: 0%; pest or weed control at 500 g/ha [13]: 0%; pest or weed control at 125 g/ha [14]: 0%; pest or weed control at 500 g/ha [14]: 0%; pest or weed control at 125 g/ha [15]: 0%; pest or weed control at 500 g/ha [15]: 0%
